PMC9375521 (Protein Science : A Publication of the Protein Society, 2022)

Target: SARS‐CoV‐2 nsp10–nsp16 complex (Severe acute respiratory syndrome coronavirus 2, UniProt P0DTD1)
Experiment: nsp10–nsp16 radiometric MTase assay, IC50 determination
Type: biochemical

For `Nc1ncnc2c1ncn2[C@@H]1O[C@H](CSCC[C@H](N)C(=O)O)[C@@H](O)[C@H]1O` [SAH, S‐adenosylhomocysteine], the IC50 was 2200 ± 200 nM and the Hill slope (radiometric assay, mean ± SD, N = 3) was 0.6 ± 0.1.
